Reference: patent US20250034139A1, “AMINE COMPOUNDS HAVING ANTI-INFLAMMATORY, ANTIFUNGAL, ANTIPARASITIC, AND ANTICANCER ACTIVITY” (PHARMA CINQ, LLC, priority 2013, published 2025)
Converted amounts (≈) assume the structure as drawn.

What was measured:
THP-1 cells = assay: Example D: LPS-triggered THP-1 cell death assay, acute/5-hour and chronic/48-hour; format: cell-based, Human; conditions: 10 ng/ml LPS, 0.1 μM test compound, 48 hours
Procedure: Compounds of the invention were tested at 0.1 μM versus AC in the LPS-triggered THP-1 cell death assay. Both acute/5-hour and chronic/48-hour phases of cell death were assessed. Compounds were screened in batches with DMSO as the negative control and AC as the high activity control.

S. cerevisiae = assay: Example I: Saccharomyces cerevisiae growth inhibition (OD 600 nm); format: cell-based; conditions: for IC50 / MIC: Saccharomyces cerevisiae, 18 hour incubation at 30° C., OD 600 nm, XLfit; for IC50: read-out: IC50, uM (50% inhibition of fungal growth); for MIC: read-out: MIC, uM (99% of inhibition of fungal growth)
Procedure: An overnight culture of S. cerevisiae was dilution in YPD broth to concentration of 40,000/ml and 150 μl/well was plated in 96 well plates. Compounds were then added to each well with concentration ranged from 4 to 50 μM as final concentration. The plates were inoculated at 30° C. overnight with shaking at 220 rpm and absorbance at 600 nm was read after 18 hour incubation.
• 1. One days prior to the inoculum preparation, pick a single colony of S. cerevisiae from the Sabouraud Dextrose Agar plate using the inoculum loop and inoculate into a 50 mL tube containing 10 ml of YPD growth medium • 2. Incubate at 30° C. with shaking at 220 rpm for 24 hours with loosen lid to allow air in and facilitates growth. • 3. Examine an aliquot of the culture under a microscope for yeast cell morphology and lack of bacterial contamination. • 4. Dilute the overnight culture with YPD medium at 1:30 dilution (70 ul to 2.1 ml) and count the number of cells as 4,230,000/ml. • 5. Mix 620 μl of 1:30 dilution and 64.4 ml YPD to make final concentration of 40,000/ml cells • 6. Plated 144 μl/well in four 96-well plates.
• 1. From 10 mM DMSO stock solutions, make serial dilutions of compounds to 0.1, 0.2, 0.3, 0.63 and 1.25 mM solutions • 2. Add 6 μl each of diluted compound solutions per well in duplicates. The final concentrations were 0, 4, 8, 12, 25 and 50 micromolar. • 3. Incubated all plates at 30 C for overnight (˜18 hours) with 220 rpm shaking. • 4. Read absorbance at OD600 for each plate on Spectra Max Plus plate reader. • 5. Calculate the % inhibition of each compound against the DMSO treated cell and plotted.

[1] = system: 4T1 murine breast cancer cells; assay: Example S: in vitro anticancer screen, 4T1 cells, Wst1; format: cell-based, mouse; conditions: Mus musculus, 4T1, 18 h, 18 hr, Wst1; for viability at 1 µM: read-out: 4T1 1 μM, percent of cancer cell survival relative to vehicle treated cells; for viability at 5 µM: read-out: 4T1 5 μM, percent of cancer cell survival relative to vehicle treated cells
Method in brief: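 Read-out is Wst1 absorbance (450 nm, reference 630 nm) after roughly 2 hr dye incubation, giving percent cell survival versus vehicle. Before that, compounds at 1 μM or 5 μM were applied for 18 hr to 4T1 cells plated at 1×10^4 per well.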

[2] = system: PC3 human prostate cancer cells; assay: Example S: in vitro anticancer screen, PC-3 cells, Wst1; format: cell-based; conditions: Homo sapiens, PC-3, approximately 20 hours, Wst1, read-out: PC-3, percent of cancer cell survival relative to vehicle treated cells
Method in brief: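 Values give percent survival relative to vehicle, read by Wst1 absorbance (450/630 nm) after 2 h dye incubation, in triplicate. Cells were seeded at 2×10^4/well and treated about 20 h with compound at 0.4, 0.5 or 2.5 μM, depending on compound.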

[3] = system: PC-3 prostate cancer cells; assay: Example T: sensitisation of PC-3 cells to doxorubicin, oxaliplatin, paclitaxel or vincristine, Wst1; format: cell-based, human; conditions: PC-3 cells, 72 hours; for viability at 2.5 µM / viability at 0.4 µM: Homo sapiens, Wst1, vehicle = 100, read-out: No Chemo: percent cell survival; for viability at 2.5 µM: compound 2.5 μM alone; for Doxorubicin 3.5 μM: percent cell survival / Oxaliplatin 100 μM: percent cell survival / Paclitaxel 50 μM: percent cell survival / Vincristine 100 nM: percent cell survival: chemotherapy agent alone normalized to 100%; for viability at 0.4 µM: compound 0.4 μM alone
[4] = system: Candida albicans strain 3153; assay: Example H: Candida albicans growth inhibition (OD 600 nm); format: cell-based
Procedure: A single colony of Candida Albicans was grown in 50 ml YPD broth overnight (19 hr). The cells were washed with PBS and 3.5×10^4 CFU/ml of C. Albicans (144 μl/well) in YPD medium were plated in 96 well plates. Test compounds were then added to each well with concentration ranged from 5 to 40 μM as final concentrations. The plates were incubated at 30° C. overnight (24 hrs) and OD at 600 nm was read at the end of incubation as an index of yeast cell density.
Part-I: Preparation of Candida albicans Cells • 1. One day prior to the inoculum preparation, pick a single colony of Candida albicans strain 3153 (lot #61794) from the Sabouraud Dextrose Agar plate using the inoculum loop and inoculate into a 250 mL flask containing 50 ml of YPD growth medium • 2. Incubate at 30° C. with shaking at 150 rpm for at least 18 hours with loosened lid to allow air in and facilitate growth. • 3. Examine an aliquot of the culture under a microscope for Candida cell morphology and lack of bacterial contamination; >95% of Candida cells should be blastoconidia. • 4. Transfer 25 ml the overnight culture into a 50-ml plastic disposable centrifuge tube, and centrifuge at 1000×g for 20 min. • 5. Discard the supernatant and wash the pellet with 4 ml of PBS at three times. Vortex and centrifuge, 1000×g for 10 min. • 6. After the third wash, dispense the pellet with 2 ml PBS and vortex. • 7. Make three 1:10 serial dilutions in sterile PBS (10^−1, 10^−2, 10^−3) from the 2 ml cell suspension using 15 ml culture tubes. The final volume in each tube is 5 ml. • 8. […] Make a 1:4 dilution in YPD medium from the 50-fold dilution of 10^−3 cell suspension for testing compounds. • The final C. albicans cell concentration for the test: 3.5×10^4 CFU/ml • 10. Plated 144 ul/well of the above dilution of cell on 96-well plates. Part-II: C. Albicans Growth Inhibition Testing with Compounds • 1. From 10 mM DMSO stock solutions, make serial dilutions of compounds to 0.13, 0.25, 0.40, 0.55, 0.75 and 1.0 mM solutions • 2. Add 6 ul each of diluted compound solutions per well in duplicates. The final concentrations were 0, 5, 10, 16, 22, 30 and 40 micromolar. • 3. Incubated all plates at 30 C for overnight (˜24 hours). • 4. Read absorbance at OD600 for each plate. • 5. Calculate the % inhibition of each compound against the DMSO treated cell.

[5] = system: imiquimod-induced dermatitis; conditions: for Ear thickness, Mean ± SEM: imiquimod-treated mice; for Ear thickness, Mean ± SEM / PASI Score, Mean ± SEM: topical ointment 0.06% active drug (dexamethasone 0.03%, tacrolimus 0.1%); for PASI Score, Mean ± SEM: scale 0-12
Procedure: Topical imiquimod (IMQ), a toll-like receptor agonist, has been established as a model of Inflammatory skin diseases including psoriasis and atopic dermatitis. Dermal inflammatory changes and gene expression in mice treated with topical imiquimod mimic human psoriasis and dermatitis (van der Fits et al., 2009; Swindell et al., 2011). The effect of a set of compounds of the invention were tested in a mouse model of imiquimod-induced dermatitis, with topical tacrolimus and dexamethasone as comparators for assessing safety and efficacy relative to standard agents used to treat dermatitis in humans.
Commercial 0.1% tacrolimus ointment (ProTopic™[…]) was also used as an active comparator. Petrolatum containing 10% ethanol was used as a control treatment.
Female Balb/C mice (8 weeks old) were randomized and divided into groups of 5 animals each. Polyethylene collars were affixed to the mice to prevent them from easily scratching their ears. 5% imiquimod was applied to both ears of each mouse (20 microliters per ear) daily for 5 days, and then every other day for the full duration of the study. […] On day 7 after initiation of imiquimod, treatment with topical agents was started. Both ears of each mouse were treated with test ointments, with one compound per mouse.
Ear thickness and PASI assessments (Psoriasis Area and Severity Index, a standard psoriasis scoring system) were recorded twice per week throughout the study. The PASI score comprises the sum of evaluations of swelling, erythema and scaling on scales from 0 to 4; the maximum PASI score is 12, and the minimum, in unaffected skin, is 0).

[6] = compound 2.5 μM + doxorubicin 3.5 μM
[7] = compound 2.5 μM + oxaliplatin 100 μM
[8] = compound 2.5 μM + paclitaxel 50 μM
[9] = compound 2.5 μM + vincristine 100 nM
[10] = compound 0.4 μM + doxorubicin 3.5 μM
[11] = compound 0.4 μM + oxaliplatin 100 μM
[12] = compound 0.4 μM + paclitaxel 50 μM
[13] = compound 0.4 μM + vincristine 100 nM

Row | Structure (SMILES) | Viable cell percent change, Chronic/48-hour, Mean (THP-1 cells) | IC50 (S. cerevisiae) | viability at 1 µM [1] | viability at 5 µM [1] | viability at 0.4 µM [2] | Ear thickness, Mean ± SEM [5] | Body Weight (mean ± SEM), Final ([5]; mouse, in vivo) | Body Weight (mean ± SEM), Initial ([5]; mouse, in vivo) | D BW ([5]; mouse, in vivo) | PASI Score, Mean ± SEM [5] | other results
1 | CCCCCCOCCCCCCCCNc1ccnc2cc(C(F)(F)F)ccc12 [AY, N-[8-(Hexyloxy)octyl]-7-(trifluoromethyl)quinolin-4-amine] | 7.71% | 16.9 µM | 131% | 34.5% |  |  |  |  |  |  | MIC (S. cerevisiae): 21.9 µM (≈ 9.29 µg/mL); viability at 2.5 µM [2]: 50.4%; viability at 2.5 µM [3]: 50.4%; Doxorubicin 3.5 μM: percent cell survival [3, 6]: 78.9%; Oxaliplatin 100 μM: percent cell survival [3, 7]: 92%; Paclitaxel 50 μM: percent cell survival [3, 8]: 90.1%; Vincristine 100 nM: percent cell survival [3, 9]: 78.7%
2 | CCCCCCNC(=O)c1cccc(Nc2ccnc3ccccc23)c1 [BV, N-Hexyl-3-(quinolin-4-ylamino)benzamide] | 42.14% | 12.3 µM |  |  | 31.6% |  |  |  |  |  | MIC (S. cerevisiae): 25 µM (≈ 8.69 µg/mL)
3 | c1ccc2c(NCCCCCCCCNc3ccnc4ccccc34)ccnc2c1 [Compound AI, N^1,N^8-Di(quinolin-4-yl)octane-1,8-diamine] | 28.60% | 6.31 µM | 16.2% | 17.9% | 36.4% |  |  |  |  |  | MIC ([4]; Candida albicans, 3153, 24 hrs at 30° C., YPD, XLfit, read-out: MIC (uM) (99% of inhibition of fungal growth)): 56.4 µM (≈ 22.5 µg/mL); IC50 ([4]; Candida albicans, 3153, read-out: IC50 (uM) (50% inhibition of fungal growth), 24 hrs at 30° C., YPD, XLfit): 18.3 µM; inactive compound (inhibition of yeast growth, in words) (S. cerevisiae; tested 4 to 50 μM): could not reach near 100% kill at high concentration; viability at 0.4 µM [3]: 36.4%; Doxorubicin 3.5 μM: percent cell survival [3, 10]: 80.8%; Oxaliplatin 100 μM: percent cell survival [3, 11]: 89%; Paclitaxel 50 μM: percent cell survival [3, 12]: 96.1%; Vincristine 100 nM: percent cell survival [3, 13]: 64.9%
4 | c1ccc(Oc2ccc(Nc3ccnc4ccccc34)cc2)cc1 [DD, N-(4-Phenoxyphenyl)quinolin-4-amine] | 44.34% |  | 97.4% | 104% |  | 0.589 ± 0.018 | 20.7 ± 0.6 g | 20.9 ± 0.8 g | -0.2 g | 7.450 ± 0.322 | 
5 | c1ccc(Oc2cccc(Nc3ccnc4ccccc34)c2)cc1 [DE, N-(3-Phenoxyphenyl)quinolin-4-amine] | 25.65% |  | 60.1% | 28.6% |  | 0.593 ± 0.016 | 20.5 ± 0.5 g | 20.6 ± 0.5 g | -0.1 g | 7.250 ± 0.183 | viability at 2.5 µM [2]: 42%; viability at 2.5 µM [3]: 42%; Doxorubicin 3.5 μM: percent cell survival [3, 6]: 69.3%; Oxaliplatin 100 μM: percent cell survival [3, 7]: 84.7%; Paclitaxel 50 μM: percent cell survival [3, 8]: 68.6%; Vincristine 100 nM: percent cell survival [3, 9]: 74%
6 | CCCCCCCCCCOc1cccc(CNc2ccnc3ccccc23)c1 [DU, N-[3-(Decyloxy)benzyl]quinolin-4-amine] | 17.10% |  |  |  |  | 0.607 ± 0.027 | 20.9 ± 0.5 g | 20.4 ± 0.7 g |  | 7.975 ± 0.621 | D BW (g) ([5]; mouse, in vivo): +0.5 g
7 | O=C(NCCCCCCCCNc1ccnc2ccccc12)c1cccnc1 [EF, N-[8-(Quinolin-4-ylamino)octyl]nicotinamide] |  |  | 15.6% | 23.7% | 16.7% | 0.613 ± 0.010 | 21.3 ± 0.2 g | 21.5 ± 0.6 g | -0.2 g | 7.275 ± 0.199 | viability at 0.4 µM [3]: 16.7%; Doxorubicin 3.5 μM: percent cell survival [3, 10]: 31.3%; Oxaliplatin 100 μM: percent cell survival [3, 11]: 21.7%; Paclitaxel 50 μM: percent cell survival [3, 12]: 24.3%; Vincristine 100 nM: percent cell survival [3, 13]: 23.4%
